The source of these data is the kinase profiling compilation of Christmann-Franck et al. (2016).

MAPKAPK3 (human), sequence (Q16644 whole entry, looked up): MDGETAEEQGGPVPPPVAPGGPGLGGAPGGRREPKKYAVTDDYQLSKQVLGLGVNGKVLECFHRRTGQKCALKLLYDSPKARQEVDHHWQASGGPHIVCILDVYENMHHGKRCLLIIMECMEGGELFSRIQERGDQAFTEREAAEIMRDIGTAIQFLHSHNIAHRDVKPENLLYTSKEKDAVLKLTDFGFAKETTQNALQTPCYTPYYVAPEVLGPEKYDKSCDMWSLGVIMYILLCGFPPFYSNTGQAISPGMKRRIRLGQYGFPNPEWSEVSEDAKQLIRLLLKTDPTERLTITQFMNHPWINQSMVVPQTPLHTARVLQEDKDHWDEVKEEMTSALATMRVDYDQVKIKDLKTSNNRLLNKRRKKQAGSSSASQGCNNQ
HIPK3 (human), sequence (Q9H422 whole entry, looked up): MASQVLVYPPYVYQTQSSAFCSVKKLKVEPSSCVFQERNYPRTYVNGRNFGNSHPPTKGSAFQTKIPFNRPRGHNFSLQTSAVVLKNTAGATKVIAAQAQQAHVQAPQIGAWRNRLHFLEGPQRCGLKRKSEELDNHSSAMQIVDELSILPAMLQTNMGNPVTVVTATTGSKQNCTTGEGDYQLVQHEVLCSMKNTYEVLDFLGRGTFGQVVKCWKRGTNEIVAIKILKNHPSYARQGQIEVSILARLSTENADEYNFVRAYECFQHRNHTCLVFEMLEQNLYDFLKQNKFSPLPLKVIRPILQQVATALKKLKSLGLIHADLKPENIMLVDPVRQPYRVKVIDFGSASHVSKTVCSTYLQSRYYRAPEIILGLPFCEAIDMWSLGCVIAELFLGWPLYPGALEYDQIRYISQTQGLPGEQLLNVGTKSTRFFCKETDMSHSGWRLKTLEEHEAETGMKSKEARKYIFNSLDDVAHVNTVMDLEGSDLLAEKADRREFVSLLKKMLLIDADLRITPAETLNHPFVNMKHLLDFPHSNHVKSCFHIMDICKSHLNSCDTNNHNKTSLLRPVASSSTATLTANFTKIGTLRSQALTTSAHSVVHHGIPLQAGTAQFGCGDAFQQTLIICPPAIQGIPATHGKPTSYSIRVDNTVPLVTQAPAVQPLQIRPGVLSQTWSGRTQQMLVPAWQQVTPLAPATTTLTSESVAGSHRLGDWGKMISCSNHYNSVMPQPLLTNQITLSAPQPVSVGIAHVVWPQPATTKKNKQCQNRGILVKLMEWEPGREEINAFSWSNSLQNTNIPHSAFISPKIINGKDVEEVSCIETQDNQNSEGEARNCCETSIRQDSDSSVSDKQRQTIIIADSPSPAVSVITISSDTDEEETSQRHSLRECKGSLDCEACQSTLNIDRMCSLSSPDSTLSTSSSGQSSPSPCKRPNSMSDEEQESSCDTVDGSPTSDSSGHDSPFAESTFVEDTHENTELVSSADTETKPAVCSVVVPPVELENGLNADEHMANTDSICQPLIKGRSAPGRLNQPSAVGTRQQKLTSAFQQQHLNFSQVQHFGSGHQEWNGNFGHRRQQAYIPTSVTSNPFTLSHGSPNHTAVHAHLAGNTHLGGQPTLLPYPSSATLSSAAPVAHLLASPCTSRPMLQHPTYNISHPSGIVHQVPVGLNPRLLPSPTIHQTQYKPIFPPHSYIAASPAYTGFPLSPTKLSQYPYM
GSK3A (human), sequence (P49840 whole entry, looked up): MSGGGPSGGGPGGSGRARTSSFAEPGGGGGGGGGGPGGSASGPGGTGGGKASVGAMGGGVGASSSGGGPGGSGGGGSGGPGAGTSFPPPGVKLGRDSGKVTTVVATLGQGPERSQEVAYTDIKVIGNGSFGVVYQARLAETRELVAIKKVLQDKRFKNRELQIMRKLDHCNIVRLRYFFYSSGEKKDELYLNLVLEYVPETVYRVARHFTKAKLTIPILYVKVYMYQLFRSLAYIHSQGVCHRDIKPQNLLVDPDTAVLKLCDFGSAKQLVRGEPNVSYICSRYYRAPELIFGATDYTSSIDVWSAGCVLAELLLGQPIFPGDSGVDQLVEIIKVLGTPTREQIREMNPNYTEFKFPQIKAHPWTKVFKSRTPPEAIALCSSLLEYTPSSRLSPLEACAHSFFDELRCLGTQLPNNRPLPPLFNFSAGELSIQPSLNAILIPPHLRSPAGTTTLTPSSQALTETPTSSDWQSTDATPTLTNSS

One assay concerns the target HIPK3 (human) (UniProt Q9H422). Briefly: radiometric filter-binding kinase assay, Kinase HotSpot. Particulars: compound 0.5 µM; ATP 10 µM.
One may read the residual activity as the signal under treatment as a percentage of the control signal. `O=C1NC(=O)C(c2cn(CCCn3ccnc3)c3ccccc23)=C1Nc1ccccc1`: the residual activity turned out to be 102%.

Take `CCCC(=O)Oc1ccc2[nH]c(C(=O)c3cc4ccccc4[nH]3)cc2c1`: the residual activity came out at 94.7%.

As for `CCN(CC)CCNC(=O)c1c(C)[nH]c(/C=C2\C(=O)Nc3ccc(Cl)cc32)c1C`, the residual activity came to 50.8%.

For the next assay, the target named is LIMK1 (human) (UniProt P53667). The assay is described as above. Particulars: compound 0.5 µM; ATP 10 µM.
As to `O=C1NC(=O)C(c2cn(CCCn3ccnc3)c3ccccc23)=C1Nc1ccccc1`, the residual activity amounted to 83.8%.

As for `CCCC(=O)Oc1ccc2[nH]c(C(=O)c3cc4ccccc4[nH]3)cc2c1`, the residual activity turned out to be 93.9%.

For the compound `CCN(CC)CCNC(=O)c1c(C)[nH]c(/C=C2\C(=O)Nc3ccc(Cl)cc32)c1C`, the residual activity came to 98.4%.

A further assay deals with MAPKAPK5 (human) (UniProt Q8IW41). Described as above. Particulars: compound 0.5 µM; ATP 10 µM.
Consider `O=C1NC(=O)C(c2cn(CCCn3ccnc3)c3ccccc23)=C1Nc1ccccc1`, for which the residual activity is 96.4%.

Turning to `CCCC(=O)Oc1ccc2[nH]c(C(=O)c3cc4ccccc4[nH]3)cc2c1`, the residual activity was 101%.

Regarding `CCN(CC)CCNC(=O)c1c(C)[nH]c(/C=C2\C(=O)Nc3ccc(Cl)cc32)c1C`, the residual activity was 91.6%.

The target of the next assay is ROCK1 (human) (UniProt Q13464). The assay is described as above. Particulars: compound 0.5 µM; ATP 10 µM.
ROCK1 (human), sequence (Q13464 whole entry, looked up): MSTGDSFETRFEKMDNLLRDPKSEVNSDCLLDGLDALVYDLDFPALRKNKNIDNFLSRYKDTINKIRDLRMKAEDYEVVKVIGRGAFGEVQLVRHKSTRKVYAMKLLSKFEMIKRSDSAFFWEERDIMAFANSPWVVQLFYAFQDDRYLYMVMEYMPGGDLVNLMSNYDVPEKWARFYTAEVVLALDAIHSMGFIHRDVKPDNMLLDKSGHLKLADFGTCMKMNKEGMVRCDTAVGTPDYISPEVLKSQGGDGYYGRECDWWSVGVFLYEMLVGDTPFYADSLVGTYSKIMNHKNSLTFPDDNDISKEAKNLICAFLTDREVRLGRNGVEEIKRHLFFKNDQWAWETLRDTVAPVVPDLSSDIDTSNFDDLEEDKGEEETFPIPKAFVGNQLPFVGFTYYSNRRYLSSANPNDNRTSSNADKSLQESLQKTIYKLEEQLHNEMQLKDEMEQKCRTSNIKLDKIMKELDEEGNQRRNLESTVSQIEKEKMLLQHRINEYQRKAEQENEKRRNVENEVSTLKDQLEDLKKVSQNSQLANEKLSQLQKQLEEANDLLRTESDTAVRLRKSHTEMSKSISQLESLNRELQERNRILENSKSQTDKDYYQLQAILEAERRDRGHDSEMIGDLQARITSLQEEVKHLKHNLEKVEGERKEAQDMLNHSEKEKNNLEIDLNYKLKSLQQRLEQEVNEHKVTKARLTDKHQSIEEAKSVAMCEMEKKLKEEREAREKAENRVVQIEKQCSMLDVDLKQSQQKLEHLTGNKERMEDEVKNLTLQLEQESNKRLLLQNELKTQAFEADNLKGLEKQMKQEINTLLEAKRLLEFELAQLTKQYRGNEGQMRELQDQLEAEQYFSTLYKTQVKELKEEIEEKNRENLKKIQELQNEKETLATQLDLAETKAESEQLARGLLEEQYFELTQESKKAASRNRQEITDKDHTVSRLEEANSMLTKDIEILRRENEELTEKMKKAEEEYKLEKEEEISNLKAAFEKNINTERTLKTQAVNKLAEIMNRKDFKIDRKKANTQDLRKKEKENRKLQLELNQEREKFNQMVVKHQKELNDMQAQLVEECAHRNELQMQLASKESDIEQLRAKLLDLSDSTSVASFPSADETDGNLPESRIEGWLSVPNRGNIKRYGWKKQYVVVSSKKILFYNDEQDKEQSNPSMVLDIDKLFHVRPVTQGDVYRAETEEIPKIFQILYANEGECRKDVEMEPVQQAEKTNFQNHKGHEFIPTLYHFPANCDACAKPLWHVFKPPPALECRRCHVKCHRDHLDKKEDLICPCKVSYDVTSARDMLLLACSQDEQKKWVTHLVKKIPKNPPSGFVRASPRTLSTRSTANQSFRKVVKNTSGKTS
On to `O=C1NC(=O)C(c2cn(CCCn3ccnc3)c3ccccc23)=C1Nc1ccccc1`, for which the residual activity was 99.2%.

Take `CCCC(=O)Oc1ccc2[nH]c(C(=O)c3cc4ccccc4[nH]3)cc2c1`: the residual activity amounted to 105%.

Regarding `CCN(CC)CCNC(=O)c1c(C)[nH]c(/C=C2\C(=O)Nc3ccc(Cl)cc32)c1C`, the residual activity was found to be 89.7%.

The next assay addresses MAPK1 (human) (UniProt P28482). Described as above. Particulars: compound 0.5 µM; ATP 10 µM.
As to `O=C1NC(=O)C(c2cn(CCCn3ccnc3)c3ccccc23)=C1Nc1ccccc1`, the residual activity is 94.8%.

For `CCCC(=O)Oc1ccc2[nH]c(C(=O)c3cc4ccccc4[nH]3)cc2c1`, the residual activity came out at 105%.

`CCN(CC)CCNC(=O)c1c(C)[nH]c(/C=C2\C(=O)Nc3ccc(Cl)cc32)c1C`: the residual activity turned out to be 97.1%.

In another assay the target is MST1R (human) (UniProt Q04912). Described as above. Particulars: compound 0.5 µM; ATP 10 µM.
As for `O=C1NC(=O)C(c2cn(CCCn3ccnc3)c3ccccc23)=C1Nc1ccccc1`, the residual activity came to 93.5%.

For `CCCC(=O)Oc1ccc2[nH]c(C(=O)c3cc4ccccc4[nH]3)cc2c1`, the residual activity stood at 103%.

Consider `CCN(CC)CCNC(=O)c1c(C)[nH]c(/C=C2\C(=O)Nc3ccc(Cl)cc32)c1C`, for which the residual activity worked out at 96.7%.

Another assay has as its target GSK3A (human) (UniProt P49840). The description is as above. The note with it: compound 0.5 µM; ATP 10 µM.
As to `O=C1NC(=O)C(c2cn(CCCn3ccnc3)c3ccccc23)=C1Nc1ccccc1`, the residual activity came to 10.6%.

`CCCC(=O)Oc1ccc2[nH]c(C(=O)c3cc4ccccc4[nH]3)cc2c1`: the residual activity was determined as 94.1%.

In the case of `CCN(CC)CCNC(=O)c1c(C)[nH]c(/C=C2\C(=O)Nc3ccc(Cl)cc32)c1C`, the residual activity was 88.3%.

For a further assay, the target named is NEK7 (human) (UniProt Q8TDX7). The description is as above. The note with it: compound 0.5 µM; ATP 10 µM.
NEK7 (human), sequence (Q8TDX7 whole entry, looked up): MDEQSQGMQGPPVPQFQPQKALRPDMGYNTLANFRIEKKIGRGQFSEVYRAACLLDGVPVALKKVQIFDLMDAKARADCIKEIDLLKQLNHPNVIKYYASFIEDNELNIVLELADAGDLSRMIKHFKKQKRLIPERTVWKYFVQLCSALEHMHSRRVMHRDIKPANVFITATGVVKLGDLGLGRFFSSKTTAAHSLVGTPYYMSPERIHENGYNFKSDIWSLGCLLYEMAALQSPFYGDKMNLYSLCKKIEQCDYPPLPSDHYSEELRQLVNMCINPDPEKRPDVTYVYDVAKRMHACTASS
On to `O=C1NC(=O)C(c2cn(CCCn3ccnc3)c3ccccc23)=C1Nc1ccccc1`, for which the residual activity turned out to be 102%.

In the case of `CCCC(=O)Oc1ccc2[nH]c(C(=O)c3cc4ccccc4[nH]3)cc2c1`, the residual activity is 95.5%.

`CCN(CC)CCNC(=O)c1c(C)[nH]c(/C=C2\C(=O)Nc3ccc(Cl)cc32)c1C`: the residual activity was determined as 99.3%.

For a further assay, the target named is CAMKK1 (human) (UniProt Q8N5S9). The assay is described as above. Particulars: compound 0.5 µM; ATP 10 µM.
Regarding `O=C1NC(=O)C(c2cn(CCCn3ccnc3)c3ccccc23)=C1Nc1ccccc1`, the residual activity was 96.3%.

Take `CCCC(=O)Oc1ccc2[nH]c(C(=O)c3cc4ccccc4[nH]3)cc2c1`: the residual activity amounted to 106%.

As to `CCN(CC)CCNC(=O)c1c(C)[nH]c(/C=C2\C(=O)Nc3ccc(Cl)cc32)c1C`, the residual activity was 47.7%.

The target in another assay is GSG2 (human) (UniProt Q8TF76). The assay is described as above. The note with it: compound 0.5 µM; ATP 10 µM.
GSG2 (human), sequence (Q8TF76 whole entry, looked up): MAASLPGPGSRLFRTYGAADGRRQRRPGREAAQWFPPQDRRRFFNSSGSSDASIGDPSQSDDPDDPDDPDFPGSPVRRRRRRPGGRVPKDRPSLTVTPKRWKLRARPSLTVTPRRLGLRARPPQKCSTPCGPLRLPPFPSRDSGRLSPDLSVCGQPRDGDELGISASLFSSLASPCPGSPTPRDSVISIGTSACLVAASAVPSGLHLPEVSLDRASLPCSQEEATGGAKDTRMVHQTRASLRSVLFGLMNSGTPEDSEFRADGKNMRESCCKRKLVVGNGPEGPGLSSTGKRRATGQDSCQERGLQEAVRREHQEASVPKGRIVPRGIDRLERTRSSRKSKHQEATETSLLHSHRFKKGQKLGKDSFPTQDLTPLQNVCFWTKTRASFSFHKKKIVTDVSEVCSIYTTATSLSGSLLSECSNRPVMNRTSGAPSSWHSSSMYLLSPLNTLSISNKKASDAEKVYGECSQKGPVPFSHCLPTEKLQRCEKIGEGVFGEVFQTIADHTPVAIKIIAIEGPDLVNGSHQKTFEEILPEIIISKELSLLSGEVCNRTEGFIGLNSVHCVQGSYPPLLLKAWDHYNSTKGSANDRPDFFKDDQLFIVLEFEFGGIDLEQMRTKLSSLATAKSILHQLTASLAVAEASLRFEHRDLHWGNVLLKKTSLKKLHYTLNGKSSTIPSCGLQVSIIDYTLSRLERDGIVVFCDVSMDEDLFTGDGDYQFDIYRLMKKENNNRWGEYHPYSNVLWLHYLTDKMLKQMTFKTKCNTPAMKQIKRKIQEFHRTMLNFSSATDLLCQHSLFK
Consider `O=C1NC(=O)C(c2cn(CCCn3ccnc3)c3ccccc23)=C1Nc1ccccc1`, for which the residual activity came to 95.8%.

For the compound `CCCC(=O)Oc1ccc2[nH]c(C(=O)c3cc4ccccc4[nH]3)cc2c1`, the residual activity came to 99.2%.

With `CCN(CC)CCNC(=O)c1c(C)[nH]c(/C=C2\C(=O)Nc3ccc(Cl)cc32)c1C`, the residual activity came to 82.9%.

The target in another assay is NEK9 (human) (UniProt Q8TD19). The assay is described as above. The note with it: compound 0.5 µM; ATP 10 µM.
Regarding `O=C1NC(=O)C(c2cn(CCCn3ccnc3)c3ccccc23)=C1Nc1ccccc1`, the residual activity worked out at 89.1%.

`CCCC(=O)Oc1ccc2[nH]c(C(=O)c3cc4ccccc4[nH]3)cc2c1`: the residual activity is 110%.

`CCN(CC)CCNC(=O)c1c(C)[nH]c(/C=C2\C(=O)Nc3ccc(Cl)cc32)c1C`: the residual activity was determined as 95.9%.

The target in the next assay is CSF1R (human) (UniProt P07333). The description is as above. Particulars: compound 0.5 µM; ATP 10 µM.
For the compound `O=C1NC(=O)C(c2cn(CCCn3ccnc3)c3ccccc23)=C1Nc1ccccc1`, the residual activity came out at 97.5%.

Consider `CCCC(=O)Oc1ccc2[nH]c(C(=O)c3cc4ccccc4[nH]3)cc2c1`, for which the residual activity stood at 103%.

In the case of `CCN(CC)CCNC(=O)c1c(C)[nH]c(/C=C2\C(=O)Nc3ccc(Cl)cc32)c1C`, the residual activity came to 7.41%.

For a further assay, the target named is EPHA5 (human) (UniProt P54756). Described as above. Particulars: compound 0.5 µM; ATP 10 µM.
With `O=C1NC(=O)C(c2cn(CCCn3ccnc3)c3ccccc23)=C1Nc1ccccc1`, the residual activity came to 96.1%.

In the case of `CCCC(=O)Oc1ccc2[nH]c(C(=O)c3cc4ccccc4[nH]3)cc2c1`, the residual activity came to 97.7%.

Regarding `CCN(CC)CCNC(=O)c1c(C)[nH]c(/C=C2\C(=O)Nc3ccc(Cl)cc32)c1C`, the residual activity turned out to be 90.4%.

The target in a further assay is MAP3K2 (human) (UniProt Q9Y2U5). The assay is described as above. Particulars: compound 0.5 µM; ATP 10 µM.
On to `O=C1NC(=O)C(c2cn(CCCn3ccnc3)c3ccccc23)=C1Nc1ccccc1`, for which the residual activity turned out to be 83.3%.

On to `CCCC(=O)Oc1ccc2[nH]c(C(=O)c3cc4ccccc4[nH]3)cc2c1`, for which the residual activity is 81.7%.

As for `CCN(CC)CCNC(=O)c1c(C)[nH]c(/C=C2\C(=O)Nc3ccc(Cl)cc32)c1C`, the residual activity came to 20.1%.

The target in another assay is FYN (human) (UniProt P06241). Described as above. Particulars: compound 0.5 µM; ATP 10 µM.
FYN (human), sequence (P06241 whole entry, looked up): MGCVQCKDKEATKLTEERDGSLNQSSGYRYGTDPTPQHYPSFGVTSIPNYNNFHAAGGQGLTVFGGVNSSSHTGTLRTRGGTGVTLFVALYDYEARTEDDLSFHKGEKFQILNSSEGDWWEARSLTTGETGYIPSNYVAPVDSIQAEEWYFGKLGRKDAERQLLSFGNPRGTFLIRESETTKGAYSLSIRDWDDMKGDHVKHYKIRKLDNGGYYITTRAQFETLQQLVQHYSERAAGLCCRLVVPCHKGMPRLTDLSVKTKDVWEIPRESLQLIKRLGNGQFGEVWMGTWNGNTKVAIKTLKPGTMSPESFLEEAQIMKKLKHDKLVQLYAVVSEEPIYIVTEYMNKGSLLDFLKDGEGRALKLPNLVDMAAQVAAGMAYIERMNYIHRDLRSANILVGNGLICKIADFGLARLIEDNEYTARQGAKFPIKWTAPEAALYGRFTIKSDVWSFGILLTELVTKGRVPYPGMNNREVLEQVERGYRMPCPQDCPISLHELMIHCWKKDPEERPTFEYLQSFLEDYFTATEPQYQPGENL
As for `O=C1NC(=O)C(c2cn(CCCn3ccnc3)c3ccccc23)=C1Nc1ccccc1`, the residual activity was found to be 102%.

For `CCCC(=O)Oc1ccc2[nH]c(C(=O)c3cc4ccccc4[nH]3)cc2c1`, the residual activity turned out to be 102%.

Regarding `CCN(CC)CCNC(=O)c1c(C)[nH]c(/C=C2\C(=O)Nc3ccc(Cl)cc32)c1C`, the residual activity came out at 28.4%.

For another assay, the target named is FLT3 (human) (UniProt P36888). Described as above. Particulars: compound 0.5 µM; ATP 10 µM.
Regarding `O=C1NC(=O)C(c2cn(CCCn3ccnc3)c3ccccc23)=C1Nc1ccccc1`, the residual activity is 8.21%.

With `CCCC(=O)Oc1ccc2[nH]c(C(=O)c3cc4ccccc4[nH]3)cc2c1`, the residual activity stood at 79.9%.

Turning to `CCN(CC)CCNC(=O)c1c(C)[nH]c(/C=C2\C(=O)Nc3ccc(Cl)cc32)c1C`, the residual activity turned out to be 0.782%.

In the next assay the target is ULK3 (human) (UniProt Q6PHR2). The assay is described as above. Particulars: compound 0.5 µM; ATP 10 µM.
Consider `O=C1NC(=O)C(c2cn(CCCn3ccnc3)c3ccccc23)=C1Nc1ccccc1`, for which the residual activity is 84.7%.

As for `CCCC(=O)Oc1ccc2[nH]c(C(=O)c3cc4ccccc4[nH]3)cc2c1`, the residual activity amounted to 89.5%.

Regarding `CCN(CC)CCNC(=O)c1c(C)[nH]c(/C=C2\C(=O)Nc3ccc(Cl)cc32)c1C`, the residual activity was 21.6%.

The target in the next assay is CAMK1G (human) (UniProt Q96NX5). The description is as above. Particulars: compound 0.5 µM; ATP 10 µM.
Regarding `O=C1NC(=O)C(c2cn(CCCn3ccnc3)c3ccccc23)=C1Nc1ccccc1`, the residual activity came to 84.6%.

With `CCCC(=O)Oc1ccc2[nH]c(C(=O)c3cc4ccccc4[nH]3)cc2c1`, the residual activity was 100%.

Turning to `CCN(CC)CCNC(=O)c1c(C)[nH]c(/C=C2\C(=O)Nc3ccc(Cl)cc32)c1C`, the residual activity was 49.5%.

The next assay deals with PAK3 (human) (UniProt O75914). The assay is described as above. Particulars: compound 0.5 µM; ATP 10 µM.
For the compound `O=C1NC(=O)C(c2cn(CCCn3ccnc3)c3ccccc23)=C1Nc1ccccc1`, the residual activity was determined as 100%.

Consider `CCCC(=O)Oc1ccc2[nH]c(C(=O)c3cc4ccccc4[nH]3)cc2c1`, for which the residual activity was 102%.

Take `CCN(CC)CCNC(=O)c1c(C)[nH]c(/C=C2\C(=O)Nc3ccc(Cl)cc32)c1C`: the residual activity stood at 93.8%.

A further assay has as its target MAPKAPK3 (human) (UniProt Q16644). Described as above. The note with it: compound 0.5 µM; ATP 10 µM.
With `O=C1NC(=O)C(c2cn(CCCn3ccnc3)c3ccccc23)=C1Nc1ccccc1`, the residual activity came out at 92.4%.

Consider `CCCC(=O)Oc1ccc2[nH]c(C(=O)c3cc4ccccc4[nH]3)cc2c1`, for which the residual activity worked out at 94.3%.

`CCN(CC)CCNC(=O)c1c(C)[nH]c(/C=C2\C(=O)Nc3ccc(Cl)cc32)c1C`: the residual activity was 101%.

In a further assay the target is CAMKK2 (human) (UniProt Q96RR4). Described as above. Particulars: compound 0.5 µM; ATP 10 µM.
On to `O=C1NC(=O)C(c2cn(CCCn3ccnc3)c3ccccc23)=C1Nc1ccccc1`, for which the residual activity is 51.3%.

Consider `CCCC(=O)Oc1ccc2[nH]c(C(=O)c3cc4ccccc4[nH]3)cc2c1`, for which the residual activity turned out to be 84.6%.

Regarding `CCN(CC)CCNC(=O)c1c(C)[nH]c(/C=C2\C(=O)Nc3ccc(Cl)cc32)c1C`, the residual activity turned out to be 48%.
